This is an account of results in PubChem BioAssay AID1259408 (Genetic Toxicology Data Bank (GENE-TOX), 2018).

Molecules are shown by their SMILES. Calls of active or inactive are those of the source. No rule for the calls is given here.

The series relates to GENE-TOX genotoxicity assays, various organisms and cells. In words: GENE-TOX mutagenicity studies. To be noted: for call: Assay Type: In vivo carcinogenicity studies.
Setting [1] is: Species/Cell Type: Drosophila melanogaster, Assay Type: Sex-linked recessive lethal gene mutation, Assay Code: SRL+, Evaluation Type: Evaluation A (Pre-1980).
Where [2] appears, read: Species/Cell Type: Mouse, Sex: Male, Assay Type: Sperm morphology, Assay Code: SPI+, Evaluation Type: Evaluation A (Pre-1980).
The mark [3] stands for this setting: Species/Cell Type: Nonhuman, Assay Code: CCGT, Evaluation Type: Evaluation A (Pre-1980).
The mark [4] stands for this setting: Species/Cell Type: Nonhuman, Assay Type: Sister-chromatid exchange (SCE) in vitro, Assay Code: SC2+D, Dose Response: With dose response, Evaluation Type: Evaluation B (Post-1980).
Setting [5] is: Species/Cell Type: Salmonella typhimurium (one or more of the five standard strains: TA98, TA100, TA1535, TA1537, and TA1538), Assay Type: Histidine reverse gene mutation, Ames assay, Assay Code: SALT, Evaluation Type: Evaluation A (Pre-1980).
Where [6] appears, read: Species/Cell Type: Salmonella typhimurium (one or more of the five standard strains: TA98, TA100, TA1535, TA1537, and TA1538), Assay Type: Histidine reverse gene mutation, Ames assay, Assay Code: SAL+, Evaluation Type: Evaluation A (Pre-1980).
Where [7] appears, read: Species/Cell Type: Salmonella typhimurium (one or more of the five standard strains: TA98, TA100, TA1535, TA1537, and TA1538), Assay Type: Histidine reverse gene mutation, Ames assay, Assay Code: SAL+*, Activation: With metabolic activation, Evaluation Type: Evaluation A (Pre-1980).
[8] abbreviates: Species/Cell Type: Mammalian polychromatic erythrocytes, Assay Type: Micronucleus test, chromosome aberrations, Assay Code: MNTT, Evaluation Type: Evaluation B (Post-1980).
Setting [9] is: Species/Cell Type: Chinese hamster lung (V79) cells, Assay Type: Forward gene mutation at the HPRT or ouabain locus, Assay Code: V79+, Evaluation Type: Evaluation A (Pre-1980).
[10] abbreviates: Species/Cell Type: Allium cepa, Assay Type: Chromosome aberrations, Assay Code: ALC+D, Dose Response: With dose response, Evaluation Type: Evaluation A (Pre-1980).

Take `CC1CN1P(=O)(N1CC1C)N1CC1C` (stereo not given): the mutagenic call is “active; positive” under setting [1]; “no conclusion” (Species/Cell Type: F1 mouse, Sex: Male, Assay Type: Sperm morphology, Assay Code: SPFT, Evaluation Type: Evaluation A (Pre-1980)); “active; positive” (Species/Cell Type: Hordeum vulgare (barley), Assay Type: Chromosome aberrations, Assay Code: HOC+, Evaluation Type: Evaluation A (Pre-1980)); “active; positive” (Species/Cell Type: Mammalian polychromatic erythrocytes, Assay Type: Micronucleus test, chromosome aberrations, Assay Code: MNT+, Evaluation Type: Evaluation A (Pre-1980)); “active; positive” under setting [2]; “active; positive” (Species/Cell Type: Neurospora crassa, Assay Type: Forward gene mutation, Assay Code: NEF+, Evaluation Type: Evaluation A (Pre-1980)). The mutagenic call (Species/Cell Type: Nonhuman bone marrow, Assay Type: Chromosome aberrations, in vivo, Assay Code: CY#+, Evaluation Type: Evaluation A (Pre-1980)) is “active; positive”; the mutagenic call (Species/Cell Type: Rodents, Sex: Male, Assay Type: Dominant lethal test, Assay Code: DLT+, Evaluation Type: Evaluation A (Pre-1980)) is “active; positive”; the mutagenic call (Species/Cell Type: Vicia faba, Assay Type: Chromosome aberrations, Assay Code: VIC+D, Dose Response: With dose response, Evaluation Type: Evaluation A (Pre-1980)) is “active; positive”. Besides, under setting [3], the call is “no conclusion”.
Take `Cc1c2ccccc2cc2c1ccc1cccc(C)c12`: the mutagenic call (Species/Cell Type: Drosophila melanogaster, Assay Type: Sex-linked recessive lethal gene mutation, Assay Code: SRLT, Evaluation Type: Evaluation A (Pre-1980)) is given as “no conclusion”.
In the case of `Cl/C=C(\Cl)C(Cl)Cl`, the mutagenic call under setting [4] is “active; positive”.
For `CC(=O)O[C@@H]1[C@@H](O)[C@H]2O[C@@H]3C=C(C)C(=O)[C@@H](O)[C@]3(CO)[C@]1(C)[C@]21CO1`, the mutagenic call by setting is: (Species/Cell Type: Bacillus subtilis (H17 vs M45), Assay Type: Rec-assay, spot test, DNA effects (bacterial DNA repair), Assay Code: REW-, Evaluation Type: Evaluation A (Pre-1980)) “inactive; negative”; under setting [5], “no conclusion”.
With `COCC(O)Cn1ccnc1[N+](=O)[O-]` (stereo not given), the mutagenic call (Species/Cell Type: Escherichia coli WP2 UVRA, Assay Type: Tryptophan reverse gene mutation, Assay Code: WPU+D, Dose Response: With dose response, Evaluation Type: Evaluation A (Pre-1980)) was “active; positive”; the mutagenic call (Species/Cell Type: Mouse (C3H/10T1/2) cells, Assay Type: Cell transformation, Assay Code: CTH+D, Dose Response: With dose response, Evaluation Type: Evaluation A (Pre-1980)) was “active; positive”; the mutagenic call under setting [4] was “active; positive”; the mutagenic call (Species/Cell Type: Nonhuman, Assay Type: Sister-chromatid exchange (SCE) in vivo, Assay Code: SC3T, Evaluation Type: Evaluation B (Post-1980)) was “no conclusion”; the mutagenic call under setting [6] is “active; positive”.
Regarding `CN=C1C=CC(=C(c2ccc(N(C)C)cc2)c2ccc(N(C)C)cc2)C=C1`, the mutagenic call was “active; positive” (Species/Cell Type: Bacillus subtilis (H17 vs M45), Assay Type: Rec-assay, spot test, DNA effects (bacterial DNA repair), Assay Code: REW+, Evaluation Type: Evaluation A (Pre-1980)) and “no conclusion” (Species/Cell Type: Bacillus subtilis (H17 vs M45T), Assay Type: Rec-assay, spot test, DNA effects (bacterial DNA repair), Assay Code: REXT, Evaluation Type: Evaluation A (Pre-1980)).
Take `CC1=CCCc2c1cc(C)c1c2ccc2ccccc21`: under setting [7], the mutagenic call is “active; positive”.
Regarding `CC(C)NCC(O)c1ccc(NS(C)(=O)=O)cc1` (stereo not given), the mutagenic call under setting [8] was “no conclusion”.
Turning to `O[C@@H]1[C@H]2O[C@H]2c2cc3c(ccc4ccccc43)cc2[C@H]1O`, the mutagenic call is “active; positive” under setting [9] and “active; positive” under setting [6].
For `c1ccc2c(c1)-c1cccc3c1c-2cc1ccccc13`, the call (Species/Cell Type: Nonhuman, Assay Code: CCG+, Evaluation Type: Evaluation A (Pre-1980)) was “active; positive”. The mutagenic call is, setting by setting: (Species/Cell Type: Nonhuman, Assay Type: Sister-chromatid exchange (SCE) in vivo, Assay Code: SC3+, Evaluation Type: Evaluation B (Post-1980)) “active; positive”; (Species/Cell Type: Nonhuman, Assay Type: Sister-chromatid exchange (SCE) in vivo, Assay Code: SC3T, Evaluation Type: Evaluation A (Pre-1980)) “no conclusion”.
Take `CC(CN(CC(=O)O)CC(=O)O)N(CC(=O)O)CC(=O)O` (stereo not given): the mutagenic call under setting [9] is “active; positive”.
For `CCOC(=O)N(OC(C)=O)C(C)=O`, the mutagenic call is “active; positive” under setting [1] and “no conclusion” (Species/Cell Type: Drosophila melanogaster, Sex: Male, Assay Type: Heritable translocation test, chromosome aberrations, Assay Code: DHTT, Evaluation Type: Evaluation A (Pre-1980)).
Turning to `O=[N+]([O-])c1ccc(-c2nc(NCCO)c3ccccc3n2)s1`, the mutagenic call under setting [6] is “active; positive”.
Consider `Oc1ccc(Cl)c2cccnc12`, for which the mutagenic call under setting [5] is given as “no conclusion”.
In the case of `CCOC(=O)c1cc2cc3ccoc3cc2oc1=O`, for the setting “Species/Cell Type: Human, Assay Type: Sister-chromatid exchange (SCE) in vitro, Assay Code: SC1+, Evaluation Type: Evaluation B (Post-1980)”, the mutagenic call was “active; positive”.
For the molecule `NC(Cc1c[nH]c2ccccc12)C(=O)O` (stereo not given), where the note is “Species/Cell Type: Human, Sex: Male, Assay Type: Sperm morphology, Assay Code: SPH-, Evaluation Type: Evaluation A (Pre-1980)”, the mutagenic call was “inactive; negative”.
Consider `COc1nc(OC)nc(N2CC2)n1`, for which the mutagenic call (Species/Cell Type: Allium cepa, Assay Type: Chromosome aberrations, Assay Code: ALC+, Evaluation Type: Evaluation A (Pre-1980)) is “active; positive”.
For the molecule `COc1ccc2ccc(=O)oc2c1`, under setting [10], the mutagenic call was “active; positive”.
The same measure, in the same setting: the same measure for `S=C(S)NCCNC(=S)S`: “active; positive”.
On to `Nc1nc(-c2cc([N+](=O)[O-])cs2)cs1`, for which the mutagenic call under setting [6] is “active; positive”.
With `Cc1cnc2ccccc2c1`, the mutagenic call under setting [7] is “active; positive”.
`C[C@@H]1C[C@@H]([C@H](O)CC2CC(=O)NC(=O)C2)C(=O)[C@@H](C)C1`: the mutagenic call is “no conclusion” (Species/Cell Type: Drosophila melanogaster, Assay Type: Aneuploidy, whole sex chromosome loss, chromosome aberrations, Assay Code: DACT, Evaluation Type: Evaluation A (Pre-1980)); “active; positive” (Species/Cell Type: Escherichia coli polA (W3110 vs P3478), Assay Type: Rec-assay, DNA effects (bacterial DNA repair), Assay Code: RE2+, Evaluation Type: Evaluation A (Pre-1980)); “no conclusion” (Species/Cell Type: Escherichia coli polA (W3119 vs P3478), Assay Type: Rec-assay, DNA effects (bacterial DNA repair), Assay Code: RE1T, Evaluation Type: Evaluation A (Pre-1980)); “no conclusion” (Species/Cell Type: Mammalian polychromatic erythrocytes, Assay Type: Micronucleus test, chromosome aberrations, Assay Code: MNTT, Evaluation Type: Evaluation A (Pre-1980)); “active; positive” under setting [2]; “inactive; negative” (Species/Cell Type: Neurospora crassa, Assay Type: Aneuploidy, chromosome aberrations, Assay Code: NEN-, Evaluation Type: Evaluation A (Pre-1980)). Besides, the mutagenic call is “no conclusion” (Species/Cell Type: Nonhuman, Assay Type: Sister-chromatid exchange (SCE) in vitro, Assay Code: SC2T, Evaluation Type: Evaluation B (Post-1980)) and “active; positive” (Species/Cell Type: Vicia faba, Assay Type: Chromosome aberrations, Assay Code: VIC+, Evaluation Type: Evaluation A (Pre-1980)). The call under setting [3] was “no conclusion”.
Regarding `ClC(Cl)C(Cl)Cl`, the mutagenic call is, setting by setting: (Species/Cell Type: Escherichia coli polA (W3119 vs P3478), Assay Type: Rec-assay, DNA effects (bacterial DNA repair), Assay Code: RE1+, Evaluation Type: Evaluation A (Pre-1980)) “active; positive”; (Species/Cell Type: Saccharomyces cerevisiae, Assay Type: Mitotic recombination or gene conversion, Assay Code: YEC+, Evaluation Type: Evaluation A (Pre-1980)) “active; positive”; (Species/Cell Type: Saccharomyces cerevisiae, Assay Type: Mitotic recombination or gene conversion, Assay Code: YEH+, Evaluation Type: Evaluation A (Pre-1980)) “active; positive”; (Species/Cell Type: Saccharomyces cerevisiae, Assay Type: Reverse gene mutation, Assay Code: YER+, Evaluation Type: Evaluation A (Pre-1980)) “active; positive”. The call (Species/Cell Type: Nonhuman, Assay Code: CCG+L, Evaluation Type: Evaluation A (Pre-1980)) is “active; positive”.
Consider `O=[N+]([O-])c1ccc2[nH]ccc2c1`, for which, under setting [6], the mutagenic call was “active; positive”.
Regarding `CCN(CC)CCOc1ccc(C(=C(Cl)c2ccccc2)c2ccccc2)cc1`, the mutagenic call (Species/Cell Type: Human, Sex: Male, Assay Type: Sperm morphology, Assay Code: SPHT, Evaluation Type: Evaluation A (Pre-1980)) is “no conclusion” and the mutagenic call under setting [8] is on record as “no conclusion”.
`O=C1C(c2[nH]c3ccccc3c2O)=Nc2ccccc21`: the mutagenic call (Species/Cell Type: Mammalian polychromatic erythrocytes, Assay Type: Micronucleus test, chromosome aberrations, Assay Code: MNT-, Evaluation Type: Evaluation B (Post-1980)) is “inactive; negative”.
On to `OCc1ccco1`, for which the mutagenic call is, setting by setting: (Species/Cell Type: Human lymphocytes, Assay Type: Sister-chromatid exchange (SCE) in vitro, Assay Code: SCLT, Evaluation Type: Evaluation B (Post-1980)) “no conclusion”; (Species/Cell Type: Human, Assay Type: Sister-chromatid exchange (SCE) in vitro, Assay Code: SC1T, Evaluation Type: Evaluation B (Post-1980)) “no conclusion”.
